This is an account of results in US3974140A, “Ureidoacetamido-penicillins” (Bayer Aktiengesellschaft, priority 1970, dated 1976).

Each structure is given as a SMILES string. “And” between values parts separate entries of the source, which are not always exact repeats. Equal entries are not always repeated.

Holding throughout (test): MIC, liquid medium test tube series dilution test
For experiment [1], the system named is Proteus vulg. 1017. The class given is cell-based, Proteus vulgaris. The note with it: Proteus vulg. 1017, 24 hours, 37°C. The method, boiled down: (§1)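 In this in vitro test, growth inhibition is judged by absence of turbidity across a dilution series in complete nutrient broth. Readings are made after 24 hours at 37°C, with values given in units/ml.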
Experiment [2] has as its system Proteus vulg. 3400. The class given is cell-based, Proteus vulgaris. Conditions: Proteus vulg. 3400, 24 hours, 37°C. An outline of the steps: as §1
Experiment [3] has as its system Staph. aureus 133. The class given is cell-based, Staphylococcus aureus. Conditions: Staph. aureus 133, 24 hours, 37°C. The method, boiled down:
as §1

Experiment [4] deals with E. coli 14. The class given is cell-based. Conditions: E. coli 14, 24 hours, 37°C. An outline of the steps: as §1
Experiment [5] concerns Streptoc. faec. ATCC 9790. The class given is cell-based. Conditions: Strep. faec. (Enterococcus) ATCC 9790, 24 hours, 37°C. An outline of the steps:
as §1

The subject of experiment [6] is E. coli A 261. The class given is cell-based. The note with it: E. coli A 261, 24 hours, 37°C. The method, boiled down: as §1
Experiment [7] deals with E. coli 183/58. The class given is cell-based. Conditions: E. coli 183/58, 24 hours, 37°C. An outline of the steps:
as §1

Experiment [8] has as its system E. coli C 165. The class given is cell-based. The note with it: E. coli C 165, 24 hours, 37°C. The method, boiled down: as §1
In experiment [9] the test system is Klebsiella 63. In kind it is cell-based. The note with it: Klebsiella 63, 24 hours, 37°C. The method, boiled down: as §1
Experiment [10] has as its system Klebsiella K 10. The class given is cell-based. Conditions: Klebsiella K 10, 24 hours, 37°C. The method, boiled down:
as §1

Experiment [11] deals with Psdm. aerug. Bonn. In kind it is cell-based, Pseudomonas aerug. Conditions: 24 hours, 37°C. An outline of the steps:
as §1

Experiment [12] deals with Psdm. aerug. Walter. In kind it is cell-based, Pseudomonas aerug. The note with it: 24 hours, 37°C. An outline of the steps:
as §1

Regarding `CN(C(=O)N[C@@H](C(=O)N[C@@H]1C(=O)N2[C@@H]1SC(C)(C)[C@@H]2C(=O)O)c1ccccc1)C(=O)c1cccs1` [Example 37, Sodium D(-)-α-[3-(2-thenoyl)-3-methyl-ureido]-benzylpenicillin], the MIC in [1] is given as 4-20 units/ml; in [2], 4-20 units/ml; in experiment [3], under 0.8 units/ml; in experiment [4], under 0.8 units/ml; in [5], 20-100 units/ml; in [6], over 500 units/ml. For the same molecule, the MIC is on record as 0.8-4 units/ml in [7]; 0.8-4 units/ml in experiment [8]; 4-20 units/ml in [9]; 20-100 units/ml in experiment [10]; 4-20 units/ml in [11]; 4-20 units/ml in experiment [12].
Consider `Cc1noc(C)c1C(=O)N(C)C(=O)N[C@@H](C(=O)N[C@@H]1C(=O)N2[C@@H]1SC(C)(C)[C@@H]2C(=O)O)c1ccccc1` [Example 38], for which the MIC in [1] is recorded as 20-100 units/ml; in [2], 20-100 units/ml; in experiment [3] it was under 0.8 units/ml; in [4] it was 0.8-4 units/ml; in experiment [5] it was 100-500 units/ml; in experiment [6] it was over 500 units/ml. The MIC in [7] is recorded as 4-20 units/ml; in experiment [8], 4-20 units/ml; in experiment [9], 20-100 units/ml; in experiment [10] it was 20-100 units/ml; in experiment [11] it was 20-100 units/ml; in [12], 20-100 units/ml.
As for `Cc1ccc(C(NC(=O)N(C)C(=O)c2ccccc2F)C(=O)N[C@@H]2C(=O)N3[C@@H]2SC(C)(C)[C@@H]3C(=O)O)cc1` (stereo partly drawn) [Example 44, Sodium α-(3-o-fluorobenzoyl-3-methyl-ureido)-α-p-tolyl-methylpenicillin], the MIC in experiment [1] is listed as 50 units/ml; in experiment [2] it was 25 units/ml; in [3] it was 1.6 units/ml; in [4] it was 6.25 units/ml; in experiment [5] it was 100 units/ml; in experiment [6], 400 units/ml. Further, the MIC in experiment [7] came to 25 units/ml; in experiment [8], 25 units/ml; in experiment [9], 50 units/ml; in [10] it was 50 units/ml; in experiment [11], 50 units/ml; in experiment [12], 50 units/ml.
As to `CN(C(=O)CCC(F)(F)F)C(=O)N[C@@H](C(=O)N[C@@H]1C(=O)N2[C@@H]1SC(C)(C)[C@@H]2C(=O)O)c1ccccc1` [Example 69, Sodium D(-)-α-(3-γ-trifluorobutyryl-3-methyl-ureido)-benzylpenicillin], the MIC in experiment [1] is reported as 12.5 units/ml; in experiment [2], 25 units/ml; in [3], under 0.78 units/ml; in experiment [4] it was 1.56 units/ml; in experiment [5] it was 100 units/ml; in experiment [6], 400 units/ml. For the same molecule, the MIC in experiment [7] is 3.12 units/ml; in [8], 6.25 units/ml; in experiment [9] it was 12.5 units/ml and 25 units/ml; in [10], 50 units/ml; in experiment [11] it was 12.5 units/ml; in [12], 100 units/ml.
As to `Cc1ccc(C(=O)N(C)C(=O)N[C@@H](C(=O)N[C@@H]2C(=O)N3[C@@H]2SC(C)(C)[C@@H]3C(=O)O)c2ccccc2)cc1[N+](=O)[O-]` [Example 70, Sodium D(-)-α-(3-[m-nitro-p-methyl]-benzoyl-3-methyl-ureido)-benzylpenicillin], the MIC in experiment [1] is 12.5 units/ml; in [2], 12.5 units/ml; in experiment [3], under 0.78 units/ml; in experiment [4], 3.12 units/ml; in [5] it was 100 units/ml; in experiment [6] it was 200 units/ml. For the same molecule, the MIC in experiment [7] worked out at 3.12 units/ml; in [8], 6.25 units/ml; in [9] it was 12.5 units/ml; in experiment [10] it was 25 units/ml; in experiment [11], 12.5 units/ml; in [12] it was 100 units/ml.
As to `CCCCCCCCCCCCCCCCCC(=O)N(C)C(=O)N[C@@H](C(=O)N[C@@H]1C(=O)N2[C@@H]1SC(C)(C)[C@@H]2C(=O)O)c1ccccc1` [Example 71, Sodium D(-)-α-(3-stearinoyl-3-methyl-ureido)-benzylpenicillin], the MIC in [1] was over 400 units/ml; in experiment [2], over 400 units/ml; in experiment [3], 200 units/ml; in [4], over 400 units/ml; in [5], over 400 units/ml; in experiment [6] it was over 400 units/ml. The MIC in experiment [7] is over 400 units/ml; in experiment [8] it was over 400 units/ml; in [9] it was over 400 units/ml; in experiment [10], over 400 units/ml; in experiment [11], over 400 units/ml; in experiment [12], 400 units/ml.
Turning to `CC1(C)S[C@@H]2[C@H](NC(=O)[C@H](NC(=O)N(CCCl)C(=O)CCC(Cl)(Cl)Cl)c3ccccc3)C(=O)N2[C@H]1C(=O)O` [Example 72, Sodium D(-)-α-(3-γ-trichlorobutyryl-3-β-chloroethyl-ureido)-benzylpenicillin], the MIC in experiment [1] is listed as 50 units/ml; in experiment [2], 200 units/ml; in experiment [3], under 0.78 units/ml; in experiment [4], 6.25 units/ml; in experiment [5] it was 100 units/ml; in experiment [6], 400 units/ml. Also, the MIC in [7] came out at 12.5 units/ml; in [8] it was 25 units/ml; in experiment [9], 50 units/ml; in experiment [10] it was 100 units/ml; in experiment [11] it was 50 units/ml; in experiment [12] it was 400 units/ml.
For the molecule `CCCCCCCCCCCCCCCCN(C(C)=O)C(=O)N[C@@H](C(=O)N[C@@H]1C(=O)N2[C@@H]1SC(C)(C)[C@@H]2C(=O)O)c1ccccc1` [Example 74, Sodium D(-)-α-(3-acetyl-3-hexadecyl-ureido)-benzylpenicillin], the MIC is given as over 400 units/ml in experiment [1]; over 400 units/ml in [2]; 25 units/ml in [3]; 100 units/ml in [4]; over 400 units/ml in [5]; over 400 units/ml in experiment [6]. In addition, the MIC in [7], in experiment [8], in experiment [9], in experiment [10], in experiment [11] and in [12] was over 400 units/ml throughout.
As to `CN(C(=O)CCCCl)C(=O)N[C@@H](C(=O)N[C@@H]1C(=O)N2[C@@H]1SC(C)(C)[C@@H]2C(=O)O)c1ccccc1` [Example 88, Sodium D(-)-α-(3-γ-chlorobutyryl-3-methyl-ureido)-benzylpenicillin], the MIC was 12.5 units/ml in experiment [1]; 6.25 units/ml in experiment [2]; under 0.78 units/ml in experiment [3]; 1.56 units/ml in experiment [4]; 50 units/ml in experiment [5]; 400 units/ml in experiment [6]. The MIC is recorded as 3.12 units/ml in experiment [7]; 6.25 units/ml in experiment [8]; 25 units/ml in [9]; 50 units/ml in [10]; 25 units/ml in experiment [11]; 50 units/ml in [12].
As for `CN(C(=O)CCC(Cl)(Cl)Cl)C(=O)N[C@@H](C(=O)N[C@@H]1C(=O)N2[C@@H]1SC(C)(C)[C@@H]2C(=O)O)c1ccccc1` [Example 89, Sodium (-)-α-(3-γ-trichlorobutyryl-3-methyl-ureido)-benzylpenicillin], the MIC was 3.12 units/ml in experiment [1]; 12.5 units/ml in experiment [2]; under 0.78 units/ml in experiment [3]; 1.56 units/ml in experiment [4]; 100 units/ml in experiment [5]; 400 units/ml in experiment [6]. In addition, the MIC came to 1.56 units/ml in experiment [7]; 6.25 units/ml in experiment [8]; 12.5 units/ml in experiment [9]; 25 units/ml in [10]; 25 units/ml in experiment [11]; 50 units/ml in experiment [12].
Take `CC(=O)N(C(=O)N[C@@H](C(=O)N[C@@H]1C(=O)N2[C@@H]1SC(C)(C)[C@@H]2C(=O)O)c1ccccc1)c1ccccc1` [Example 130, Sodium D(-)-α-(3-acetyl-3-phenyl-ureido)-benzylpenicillin]: the MIC is 200 units/ml in experiment [1]; 400 units/ml in [2]; under 0.8 units/ml in [3]; 12.5 units/ml in experiment [4]; 50 units/ml in [5]; over 400 units/ml in experiment [6]. Besides, the MIC in experiment [7] is recorded as 100 units/ml; in experiment [8], 100 units/ml; in experiment [9], 50 units/ml; in experiment [10], 25 units/ml; in experiment [11], 200 units/ml; in [12] it was 200 units/ml.
